Where two headings read alike, the source gives them in different places.
What was measured:
[1] = tested on: mice with isoproterenol (ISO)-induced ischemic heart disease; assay: ISO-induced ischemic heart disease mouse model: serum ANP and NT-proBNP (ELISA); format: in vivo; details: ISO 40 mg/kg s.c. 7 times
Experimental: (§1) Male C57BL/6 mice were allowed to acclimate to the environment and then randomly divided into 9 groups, namely the blank control group, the ISO model group, the ISO+diltiazem 20 mg/kg positive control drug group, the ISO+Formula I (0.1, 0.5, 2 mg/kg) groups, and the ISO+Formula II (0.1, 0.5, 2 mg/kg) groups. Mice in the drug administration groups were intragastrically administered the corresponding doses of Formula I and Formula II compounds once a day at the same time. Mice in the positive drug diltiazem group were intragastrically administered the corresponding dose of diltiazem once a day. Mice in the blank control group and the model group were given the same amount of solvent (0.5% CMC-Na). The administration volume was 10 mL/kg, and the administration was continuous for 11 days.
(§2) From the 4th to the 10th day of drug administration, ISO modeling was carried out. The blank control group was subcutaneously injected with normal saline, and mice in the other groups were subcutaneously injected with ISO at a dose of 40 mg/kg (modeling was performed 2 hours after drug administration), for a total of 7 times.
Detection of Myocardial Hypertrophy/Heart Failure Biomarkers: After the drug administration ended, the animals' eyes were enucleated to collect blood. The blood was left to stand at room temperature for 2 hours, and then centrifuged at 3500 rpm for 20 minutes to separate the serum. The contents of serum ANP and NT-proBNP were determined according to the instructions of the ELISA kit.

[2] = tested on: mice with isoproterenol (ISO)-induced ischemic heart disease; assay: ISO-induced ischemic heart disease mouse model: serum CK-MB (ELISA); format: in vivo
Experimental: as §1, §2
Myocardial enzyme CK-MB detection: After the administration ended, blood was collected from the animals by enucleation. The blood was left to stand at room temperature for 2 hours, and then centrifuged at 3500 rpm for 20 minutes to separate the serum. The content of CK-MB in the serum was determined according to the instructions of the ELISA kit.

[3] = tested on: mice with isoproterenol (ISO)-induced ischemic heart disease; assay: ISO-induced ischemic heart disease mouse model: myocardial tissue pathology (H&E); format: in vivo; details: for The number of animals with lesion degree + / The number of animals with lesion degree ++ / The number of animals with lesion degree +++ / The number of animals with lesion degree ++++ / The number of animals with lesion degree +++++ / The number of animals with lesion degree − / average score of myocardial tissue lesion degree: H&E; for pathological damage of myocardial tissue (H&E staining): three doses (0.1, 0.5, 2 mg/kg) by gavage
Experimental: as §1, §2
Pathological detection of myocardial tissue: After the experiment ended, the heart was washed with ice-cold physiological saline and dried with absorbent paper. It was then cut transversely into two halves. One-third of the part closer to the apex of the heart was fixed in a 4% paraformaldehyde solution. After dehydration with gradient ethanol and clearing with xylene, it was immersed in melted paraffin three times for embedding, 30 minutes each time. After embedding, continuous sections (about 4 μm thick) were made. Routine hematoxylin and eosin (H.E.) staining was performed. The pathological state of the myocardial tissue was observed under an optical microscope, photographed, and analyzed.
• −: No abnormalities were observed. • +: No myocardial tissue damage was seen. There was local hypertrophy of cardiomyocytes in the interventricular septum and papillary muscles, local edema and degeneration of cardiomyocytes, widening of the local muscle space in the lesion area, and mild non-specific inflammation in the interstitium. • ++: No obvious myocardial tissue damage (cardiomyocyte necrosis) was observed. There was local hypertrophy of cardiomyocytes in the interventricular septum and papillary muscles, local edema and degeneration of cardiomyocytes. Myofibril dissolution (disappearance of cross-striations) could be seen in local areas. The lesions were relatively limited and distributed in small foci. Non-specific inflammation was visible in the interstitium, and local fibrous tissue hyperplasia in the interstitium was noted. • +++: There was obvious hypertrophy of cardiomyocytes in the interventricular septum and papillary muscles, local edema and degeneration of cardiomyocytes. […] The lesion was limited to the subendocardium of the local interventricular septum (or papillary muscle), with a limited and small affected area. Non-specific inflammation was visible in the interstitium of the lesion area, and local fibrous tissue hyperplasia in the interstitium was noted. • ++++: The hypertrophy of cardiomyocytes in the interventricular septum and papillary muscles is remarkable. Locally, there is edema and degeneration of cardiomyocytes; there is obvious damage (necrosis of cardiomyocytes) in the myocardial tissue of the local interventricular septum and papillary muscles. The lesions are distributed in foci (or small patches), and the affected area is relatively large. […] Locally, there is edema and degeneration of cardiomyocytes; the damage (necrosis of cardiomyocytes) of the myocardial tissue of the local interventricular septum and papillary muscles is severe. The damage (necrosis) lesions are distributed in patches and are connected to each other. Transmural myocardial tissue damage of the interventricular septum and papillary muscles can be seen locally.

Rat H9C2 cardiomyocytes [4] = details: 50 μM Ang II 24 h, MTT 570 nm
Experimental: (§3) Rat H9C2 cardiomyocytes in the logarithmic growth phase were seeded at a density of 7×10^4 cells/mL into 96-well plates, with 100 μL per well. […] After 24 hours of culture, the drug treatment groups were respectively added with 50 μM Ang II and the corresponding concentration of the drug. The Ang II model group was added with 50 μM Ang II and an equal volume of DMSO, and the blank control group was added with an equal volume of DMSO. Then, the cells were cultured for another 24 hours. After removing the supernatant, 100 μL of MTT solution (0.5 mg/mL) was added to each well, and the plates were placed in an incubator for 4 hours. After removing the supernatant again, 150 μL of DMSO was added to each well, and the mixture was shaken and mixed evenly for 10 minutes. The absorbance was measured at 570 nm using a microplate reader to calculate the cell viability.
(§4) Cell viability (%)=[(As−Ab)/(Ac−Ab)]×100% • As: Experimental well (culture medium containing cells, MTT, Ang II); • Ac: Control well (culture medium containing cells, MTT, without Ang II); • Ab: Blank well (culture medium without cells, MTT, without Ang II).

Rat H9C2 cardiomyocytes [5] = assay: cells; details: H9c2, 24 h, read-out: Cell survival rate
Experimental: Rat H9C2 cardiomyocytes in the logarithmic growth phase were seeded into 96-well plates at a density of 7×10^4 cells/mL, with 100 μL per well. […] After 24 hours of culture, the drug groups were treated with 800 μM ISO and the corresponding concentrations of drugs. The ISO model group received 800 μM ISO and an equal volume of DMSO, and the blank control group received an equal volume of DMSO. The cells were then cultured for another 24 hours. After removing the supernatant, 100 μL MTT solution (0.5 mg/mL) was added to each well and incubated in the cell culture incubator for 4 hours. After removing the supernatant, 150 μL DMSO was added to each well, mixed by shaking for 10 minutes, and the absorbance was measured at 570 nm using a microplate reader to calculate cell viability. Cell viability (%)=[(As−Ab)/(Ac−Ab)]×100%. As: Experimental well (medium with cells, MTT, ISO); Ac: Control well (medium with cells, MTT, without ISO); Ab: Blank well (medium without cells, MTT, without ISO).

H9C2 cardiomyocytes = assay: cells; details: Rattus norvegicus, H9c2, read-out: Cell viability
Experimental: H9C2 cardiomyocytes in the logarithmic growth phase were seeded into 96-well plates at a density of 7×10^4 cells/mL, with 100 μL per well.
After 24 hours of culture, the culture medium of the H/R and drug-treated groups was replaced with serum-free glucose-free DMEM medium (100 μL per well). The cells were then placed in an anaerobic incubator and cultured under hypoxic conditions in a 37° C. cell culture incubator. After 6 hours, the supernatant of the H/R and drug-treated groups was removed and replaced with high-glucose medium containing 10% fetal bovine serum (100 μL per well). Each drug-treated group received the corresponding concentration of the drug, while the H/R model group and the blank control group received an equal volume of DMSO.
After removing the supernatant, 100 μL of CCK solution (the volume of CCK accounted for 10% of the DMEM culture medium volume) was added to each well. The cells were cultured in the cell culture incubator for 1 hour, and the absorbance was measured at 450 nm using a microplate reader to calculate the cell viability. Cell viability was calculated as follows: Cell viability (%)=(Experimental well-Blank well)/(Control well-Blank well)×100%.

Rat H9C2 cardiomyocytes [6] = assay: cells; details: H9c2, 24 h, read-out: Cell viability
Experimental: as §3, §4

[7] = 0.1 mg/kg intragastric once a day 11 days
[8] = 0.5 mg/kg intragastric once a day 11 days
[9] = 2 mg/kg intragastric once a day 11 days

Work on `O=c1c(Cc2ccc3c(c2)OCO3)coc2cc(O)cc(O)c12` [Formula I] yielded an ANP [1, 7] of 301.02 ± 58.98 pg/mL, an NT-proBNP [1, 7] of 39.35 ± 2.83 pg/mL and an ANP [1, 8] of 295.85 ± 57.72 pg/mL. For the same compound, the NT-proBNP [1, 8] was 43.52 ± 6.06 pg/mL, the ANP [1, 9] was 289.01 ± 50.17 pg/mL and the NT-proBNP [1, 9] was 40.47 ± 7.15 pg/mL. For the same compound, the CK-MB [2, 7] was 14.86 ± 2.90 ng/mL, the CK-MB [2, 8] was 13.71 ± 2.75 ng/mL and the CK-MB [2, 9] was 15.05 ± 2.49 ng/mL. The “The number of animals with lesion degree +” value ([3]; 0.1 mg/kg) was 0, the “The number of animals with lesion degree ++” value ([3]; 0.1 mg/kg) was 2 and the “The number of animals with lesion degree +++” value ([3]; 0.1 mg/kg) was 5. The “The number of animals with lesion degree ++++” value ([3]; 0.1 mg/kg) was 2, the “The number of animals with lesion degree +++++” value ([3]; 0.1 mg/kg) was 0 and the “The number of animals with lesion degree −” value ([3]; 0.1 mg/kg) was 0. The “average score of myocardial tissue lesion degree” value (“average score” for short) ([3]; 0.1 mg/kg) was 3.00 ± 0.71, the “The number of animals with lesion degree +” value ([3]; 0.5 mg/kg) was 2 and the “The number of animals with lesion degree ++” value ([3]; 0.5 mg/kg) was 4. The “The number of animals with lesion degree +++” value ([3]; 0.5 mg/kg) was 4, the “The number of animals with lesion degree ++++” value ([3]; 0.5 mg/kg) was 0 and the “The number of animals with lesion degree +++++” value ([3]; 0.5 mg/kg) was 0. The “The number of animals with lesion degree −” value ([3]; 0.5 mg/kg) was 0, the “average score” value ([3]; 0.5 mg/kg) was 2.20 ± 0.79 and the “The number of animals with lesion degree +” value ([3]; 2 mg/kg) was 6. The “The number of animals with lesion degree ++” value ([3]; 2 mg/kg) was 3, the “The number of animals with lesion degree +++” value ([3]; 2 mg/kg) was 0 and the “The number of animals with lesion degree ++++” value ([3]; 2 mg/kg) was 0. For the same compound, the “The number of animals with lesion degree +++++” value ([3]; 2 mg/kg) was 0, the “The number of animals with lesion degree −” value ([3]; 2 mg/kg) was 1 and the “average score” value ([3]; 2 mg/kg) was 1.20 ± 0.63. The “pathological damage of myocardial tissue (H&E staining)” value [3] was “significantly improve the pathological damage of myocardial tissue”, the OD (Rat H9C2 cardiomyocytes [4]; 0.1 μM) was 0.809 ± 0.060 and the OD (Rat H9C2 cardiomyocytes [4]; 0.3 μM) was 0.780 ± 0.046. It also gave an OD (Rat H9C2 cardiomyocytes [4]; 1 μM) of 0.791 ± 0.043, an OD (Rat H9C2 cardiomyocytes [4]; 3 μM) of 0.816 ± 0.035 and an OD (Rat H9C2 cardiomyocytes [4]; 10 μM) of 0.823 ± 0.048. The viability at 0.1 µM (Rat H9C2 cardiomyocytes [5]) was 81.3%, the viability at 0.3 µM (Rat H9C2 cardiomyocytes [5]) was 76.8% and the viability at 1 µM (Rat H9C2 cardiomyocytes [5]) was 74%. For the same compound, the viability at 3 µM (Rat H9C2 cardiomyocytes [5]) was 76.6%, the viability at 5 µM (Rat H9C2 cardiomyocytes [5]) was 66.7% and the viability at 10 µM (Rat H9C2 cardiomyocytes [5]) was 69.4%. The viability at 0.1 µM (H9C2 cardiomyocytes) was 60.6%, the viability at 0.3 µM (H9C2 cardiomyocytes) was 60.3% and the viability at 1 µM (H9C2 cardiomyocytes) was 55.4%. It also gave a viability at 3 µM (H9C2 cardiomyocytes) of 59.6%, a viability at 5 µM (H9C2 cardiomyocytes) of 54.4% and a viability at 10 µM (H9C2 cardiomyocytes) of 55.3%. It also gave a viability at 0.1 µM (Rat H9C2 cardiomyocytes [6]) of 75.1%, a viability at 0.3 µM (Rat H9C2 cardiomyocytes [6]) of 72.5% and a viability at 1 µM (Rat H9C2 cardiomyocytes [6]) of 73.5%. It also gave a viability at 3 µM (Rat H9C2 cardiomyocytes [6]) of 75.9% and a viability at 10 µM (Rat H9C2 cardiomyocytes [6]) of 76.4%.

`Cc1c(O)cc(O)c2c(=O)c(Cc3ccc4c(c3)OCO4)coc12` [Formula II, 3-(benzo[d][1,3]dioxol-5-ylmethyl)-5,7-dihydroxy-8-methyl-4H-chromen-4-one] showed an ANP [1, 7] of 303.60 ± 37.76 pg/mL, an NT-proBNP [1, 7] of 34.07 ± 4.10 pg/mL and an ANP [1, 8] of 264.38 ± 27.96 pg/mL. The NT-proBNP [1, 8] was 31.31 ± 2.24 pg/mL, the ANP [1, 9] was 258.19 ± 52.28 pg/mL and the NT-proBNP [1, 9] was 31.12 ± 2.33 pg/mL. For the same compound, the CK-MB [2, 7] was 15.48 ± 1.76 ng/mL, the CK-MB [2, 8] was 12.89 ± 2.29 ng/mL and the CK-MB [2, 9] was 12.91 ± 1.53 ng/mL. The “The number of animals with lesion degree +” value ([3]; 0.1 mg/kg) was 2, the “The number of animals with lesion degree ++” value ([3]; 0.1 mg/kg) was 4 and the “The number of animals with lesion degree +++” value ([3]; 0.1 mg/kg) was 4. For the same compound, the “The number of animals with lesion degree ++++” value ([3]; 0.1 mg/kg) was 0, the “The number of animals with lesion degree +++++” value ([3]; 0.1 mg/kg) was 0 and the “The number of animals with lesion degree −” value ([3]; 0.1 mg/kg) was 0. For the same compound, the “average score” value ([3]; 0.1 mg/kg) was 2.20 ± 0.79, the “The number of animals with lesion degree +” value ([3]; 0.5 mg/kg) was 3 and the “The number of animals with lesion degree ++” value ([3]; 0.5 mg/kg) was 4. For the same compound, the “The number of animals with lesion degree +++” value ([3]; 0.5 mg/kg) was 3, the “The number of animals with lesion degree ++++” value ([3]; 0.5 mg/kg) was 0 and the “The number of animals with lesion degree +++++” value ([3]; 0.5 mg/kg) was 0. For the same compound, the “The number of animals with lesion degree −” value ([3]; 0.5 mg/kg) was 0, the “average score” value ([3]; 0.5 mg/kg) was 2.00 ± 0.82 and the “The number of animals with lesion degree +” value ([3]; 2 mg/kg) was 6. For the same compound, the “The number of animals with lesion degree ++” value ([3]; 2 mg/kg) was 1, the “The number of animals with lesion degree +++” value ([3]; 2 mg/kg) was 0 and the “The number of animals with lesion degree ++++” value ([3]; 2 mg/kg) was 0. For the same compound, the “The number of animals with lesion degree +++++” value ([3]; 2 mg/kg) was 0, the “The number of animals with lesion degree −” value ([3]; 2 mg/kg) was 4 and the “average score” value ([3]; 2 mg/kg) was 0.73 ± 0.65. For the same compound, the “pathological damage of myocardial tissue (H&E staining)” value [3] was “significantly improve the pathological damage of myocardial tissue”, the OD (Rat H9C2 cardiomyocytes [4]; 0.1 μM) was 0.876 ± 0.044 and the OD (Rat H9C2 cardiomyocytes [4]; 0.3 μM) was 0.791 ± 0.062. For the same compound, the OD (Rat H9C2 cardiomyocytes [4]; 1 μM) was 0.835 ± 0.052, the OD (Rat H9C2 cardiomyocytes [4]; 3 μM) was 0.785 ± 0.048 and the OD (Rat H9C2 cardiomyocytes [4]; 10 μM) was 0.814 ± 0.053. It also gave a viability at 0.1 µM (Rat H9C2 cardiomyocytes [5]) of 79.8%, a viability at 0.3 µM (Rat H9C2 cardiomyocytes [5]) of 79.8% and a viability at 1 µM (Rat H9C2 cardiomyocytes [5]) of 74.8%. For the same compound, the viability at 3 µM (Rat H9C2 cardiomyocytes [5]) was 79.6%, the viability at 5 µM (Rat H9C2 cardiomyocytes [5]) was 64.9% and the viability at 10 µM (Rat H9C2 cardiomyocytes [5]) was 66.7%. The viability at 0.1 µM (H9C2 cardiomyocytes) was 60.5%, the viability at 0.3 µM (H9C2 cardiomyocytes) was 58.8% and the viability at 1 µM (H9C2 cardiomyocytes) was 52.1%. For the same compound, the viability at 3 µM (H9C2 cardiomyocytes) was 61.5%, the viability at 5 µM (H9C2 cardiomyocytes) was 44.8% and the viability at 10 µM (H9C2 cardiomyocytes) was 47.9%. For the same compound, the viability at 0.1 µM (Rat H9C2 cardiomyocytes [6]) was 81.4%, the viability at 0.3 µM (Rat H9C2 cardiomyocytes [6]) was 73.5% and the viability at 1 µM (Rat H9C2 cardiomyocytes [6]) was 77.6%. It also gave a viability at 3 µM (Rat H9C2 cardiomyocytes [6]) of 73% and a viability at 10 µM (Rat H9C2 cardiomyocytes [6]) of 75.6%.
